Measured values: patent US20240336638A1, “IMIDAZOLE COMPOUND, AND INTERMEDIATE AND APPLICATION THEREOF” (priority 2021, published 2024)
Read-outs that look alike come from different tables or passages of the source.

How the values were obtained:
[1] = tested on: MCAO/R rats; experiment: Therapeutic administration (i.v.) in middle cerebral artery occlusion/reperfusion (MCAO/R) rats; format: in vivo, rat; details: for Bleeding time / Brain water content (%) / Cerebral infarction rate (%) / Clotting time / Neurological function score: once a day for 3 days, mean ± SD, n = 8; for Neurological function score: modified Bederson score
[2] = Pharmacokinetics in SD rats after single IV and PO administration, plasma; format: in vivo; details: for Vd: rat, plasma, iv, 1 mg/kg; for MRT last: read-out: MRT(0−t); for MRT inf: read-out: MRT(0−∞)
Protocol: The experimental method of administration by gavage injection in rats: SD rats weighing 180 to 220 g were fasted for 12 hours prior to the experiment, with free access to water. After administration, food and water were withheld for 4 hours. After this 4-hour period, the rats were allowed free access to water, and food was provided after 8 hours. The drugs were administered at a set dose. N=3, blood samples were taken before administration, and 5 minutes, 0.25 hours, 0.5 hours, 0.75 hours, 1 hour, 2 hours, 4 hours, 8 hours, and 24 hours after administration, respectively, and placed into sodium heparin anticoagulant tubes. The tubes were centrifuged for 1 hour at 4° C. and at 8000 rpm for 5 minutes, and the plasma was then separated and stored in centrifuge tubes at −70° C. for analysis. The experimental method of intravenous administration to rats: SD rats weighing 180 to 220 g were fasted for 12 hours prior to the experiment, with free access to water. After administration, food and water were withheld for 4 hours. After this 4-hour period, the rats were allowed free access to water, and food was provided after 8 hours. The drugs were administered at a set dose. N=3, blood samples were taken before administration, and 5 minutes, 0.25 hours, 0.5 hours, 0.75 hours, 1 hour, 2 hours, 4 hours, 8 hours, and 24 hours after administration, respectively, and placed into sodium heparin anticoagulant tubes. The tubes were centrifuged for 1 hour at 4° C. and at 8000 rpm for 5 minutes, and the plasma was then separated and stored in centrifuge tubes at −70° C. for analysis. The plasma concentration-time data were processed using the Phoenix® WinNonlin® 8.0 program to calculate pharmacokinetic parameters. Among them, Cmax and Tmax are measured values, the elimination rate constant k of the tail section of the C-t curve is obtained from the linear regression of LnC-t, and the value of AUC0-4 is calculated by the trapezoidal area method, and the area under the curve from 0 to ∞ time is AUC=AUC0-4+Ct/k. [table]

[3] = medium dose 6 mg/kg i.v. (Ozagrel group 6 mg/kg)
[4] = Sprague-Dawley (SD), rat plasma, IV 1 mg/kg
[5] = Sprague-Dawley (SD), rat plasma, PO 6 mg/kg

For `O=C(O)[C@@H]1C[C@H]1c1ccc(Cn2cnc(Cl)c2)c(Cl)c1` [Compound 11, (1R,2R)-2-(3-Chloro-4-((4-chloro-1H-imidazol-1-yl)methyl)phenyl)cyclopropane-1-carboxylic acid], the “neurological deficits in rats” value ([1]; high dose) was “can significantly reduce”, the “Bleeding time” value ([1]; high dose 12 mg/kg i.v.) was 319.25 ± 49.38 s and the “Brain water content (%)” value ([1]; high dose 12 mg/kg i.v.) was 80.58 ± 0.77%. The “Cerebral infarction rate (%)” value ([1]; high dose 12 mg/kg i.v.) was 13.53%, the “Clotting time” value ([1]; high dose 12 mg/kg i.v.) was 152.81 ± 29.69 s and the Neurological function score ([1]; high dose 12 mg/kg i.v.) was 1.25 ± 0.46. For the same molecule, the “improving the neurological function scores of the rats” value ([1]; high dose, comparison among test drugs) was “more advantageous”, the “reducing the infarct area (smallest mean infarct rate)” value ([1]; high doses, comparison among test drugs) was “more advantageous” and the “cerebral edema in rats” value ([1]; low dose) was “did not significantly improve”. For the same molecule, the “Bleeding time” value ([1]; low dose 3 mg/kg i.v.) was 307.63 ± 64.59 s, the “Brain water content (%)” value ([1]; low dose 3 mg/kg i.v.) was 82.04 ± 1.91 % and the “Cerebral infarction rate (%)” value ([1]; low dose 3 mg/kg i.v.) was 28.07 ± 4.88%. The “Clotting time” value ([1]; low dose 3 mg/kg i.v.) was 138.38 ± 27.34 s, the Neurological function score ([1]; low dose 3 mg/kg i.v.) was 2.25 ± 0.46 and the “Bleeding time” value [1, 3] was 279.75 ± 37.97 s. For the same molecule, the “Brain water content (%)” value [1, 3] was 80.33 ± 1.65%, the “Cerebral infarction rate (%)” value [1, 3] was 19.96% and the “Clotting time” value [1, 3] was 136.63 ± 9.80 s. The Neurological function score [1, 3] was 2.00 ± 0.53, the Vd ([2]; Sprague-Dawley (SD), rat plasma, IV 1 mg/kg, read-out: Vss) was 0.22 L/kg and the Vd ([2]; Sprague-Dawley (SD), rat plasma, IV 1 mg/kg, read-out: Vz) was 0.22 L/kg. It also gave an AUC(0-inf) [2, 4] of 228 µg·h/mL, an AUC(0-t) [2, 4] of 86.4 µg·h/mL and a C0 [2, 4] of 5150 ng/mL. The Cmax [2, 4] was 5140 ng/mL, the Tmax [2, 4] was 0.083 h and the half-life [2, 4] was 34.8 h. For the same molecule, the MRT last [2, 4] was 10.5 h, the MRT inf [2, 4] was 50.1 h and the AUC(0-inf) [2, 5] was 1700 µg·h/mL. The AUC(0-t) [2, 5] was 587 µg·h/mL, the Cmax [2, 5] was 32400 ng/mL and the Tmax [2, 5] was 4 h. It also gave a half-life [2, 5] of 37 h, a bioavailability ([2]; Sprague-Dawley (SD), rat plasma, PO 6 mg/kg vs IV 1 mg/kg) of 113% and an MRT last [2, 5] of 11 h. The MRT inf [2, 5] was 54.4 h, the “T1/2 and AUC(0-∞) in the whole body blood circulation system as compared to that of Ozagrel” value ([2]; intravenously at 1 mg/kg) was “significantly increased” and the “T1/2 and AUC(0-∞) in the whole body blood circulation system as compared to that of Ozagrel” value ([2]; orally at 6 mg/kg) was “significantly increased”.
